Article PMC7419507, “In vitro Cas9-assisted editing of modular polyketide synthase genes to produce desired natural product derivatives” (Nature Communications, 2020)
Several values for one entry are separate records, joined by “and”; a condition that tells them apart may be missing. Equal values may be shown once.

Legend:
[1] = Cytotoxicity assay (CellTiter-Glo, 72 h), Jurkat; assay type: cell-based; details: human, Jurkat cells (T lymphoma), raw data (replicates)
Summary of the method: (§1)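 Viability read by CellTiter-Glo luminescence after 72 h exposure to 2-fold compound dilutions (0.5% DMSO), added 4 h after plating 1000 cells/well.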

[2] = system: T lymphoma Jurkat cells; experiment: Cytotoxicity assay (CellTiter-Glo, 72 h), Jurkat; assay type: cell-based; details: raw data (replicates)
Summary of the method: as §1

CO[C@H]1C[C@@H]2CC[C@@H](C)[C@@](O)(O2)C(=O)C(=O)N2CCCC[C@H]2C(=O)O[C@H]([C@H](C)C[C@@H]2CC[C@@H](O)[C@H](OC)C2)CC(=O)[C@H](C)/C=C(\C)[C@@H](O)CC[C@H](C)/C=C/C=C/C=C/1C [Compound 7]
viability at 72 h, 9.53674e-05 uM ([1]; conc 9.53674e-5 uM): 100%
viability at 72 h, 0.000190735 uM ([1]; conc 0.000190735 uM): 95.1%
viability at 72 h, 0.00038147 uM ([1]; conc 0.00038147 uM): 102%
viability at 72 h, 0.000762939 uM ([1]; conc 0.000762939 uM): 100%
viability at 72 h, 0.00152588 uM ([1]; conc 0.00152588 uM): 105%
viability at 72 h, 0.00305176 uM ([1]; conc 0.00305176 uM): 93.5%
viability at 72 h, 0.00610352 uM ([1]; conc 0.00610352 uM): 96.7%
viability at 72 h, 0.012207 uM ([1]; conc 0.012207 uM): 90.6%
viability at 72 h, 0.0244141 uM ([1]; conc 0.0244141 uM): 98.9%
viability at 72 h, 0.0488281 uM ([1]; conc 0.0488281 uM): 87%
viability at 72 h, 0.0976562 uM ([1]; conc 0.0976562 uM): 67%
viability at 72 h, 0.195312 uM ([1]; conc 0.195312 uM): 46.3%
viability at 72 h, 0.390625 uM ([1]; conc 0.390625 uM): 36%
viability at 72 h, 0.78125 uM ([1]; conc 0.78125 uM): 31%
viability at 72 h, 1.5625 uM ([1]; conc 1.5625 uM): 26.7%
viability at 72 h, 3.125 uM ([1]; conc 3.125 uM): 24.2%
viability at 72 h, 6.25 uM ([1]; conc 6.25 uM): 24.1%
viability at 72 h, 12.5 uM ([1]; conc 12.5 uM): 10.9%
viability at 72 h, 25 uM ([1]; conc 25 uM): 0.741%
viability at 72 h, 50 uM ([1]; conc 50 uM): 0.258%
Jurkat viability (%) ([2]; conc 9.53674e-5 uM): 101.4% and 96.8%
Jurkat viability (%) ([2]; conc 0.000190735 uM): 92.3% and 102.8%
Jurkat viability (%) ([2]; conc 0.00038147 uM): 98.3% and 99.4%
Jurkat viability (%) ([2]; conc 0.000762939 uM): 96.8% and 109.7%
Jurkat viability (%) ([2]; conc 0.00152588 uM): 108.1% and 104.4%
Jurkat viability (%) ([2]; conc 0.00305176 uM): 100.3% and 100.8%
Jurkat viability (%) ([2]; conc 0.00610352 uM): 94.5% and 97.8%
Jurkat viability (%) ([2]; conc 0.012207 uM): 91.0% and 94.3%
Jurkat viability (%) ([2]; conc 0.0244141 uM): 98.4% and 90.4%
Jurkat viability (%) ([2]; conc 0.0488281 uM): 79.8% and 78.8%
Jurkat viability (%) ([2]; conc 0.0976562 uM): 64.4% and 67.9%
Jurkat viability (%) ([2]; conc 0.195312 uM): 41.4% and 44.6%
Jurkat viability (%) ([2]; conc 0.390625 uM): 37.3% and 37.7%
Jurkat viability (%) ([2]; conc 0.78125 uM): 29.3% and 29.8%
Jurkat viability (%) ([2]; conc 1.5625 uM): 28.3%
Jurkat viability (%) ([2]; conc 3.125 uM): 25.8% and 24.4%
Jurkat viability (%) ([2]; conc 6.25 uM): 23.0% and 23.1%
Jurkat viability (%) ([2]; conc 12.5 uM): 10.5% and 12.1%
Jurkat viability (%) ([2]; conc 25 uM): 0.565% and 1.0%
Jurkat viability (%) ([2]; conc 50 uM): 0.186% and 0.257%
